Results on one compound are retold here after patent US20230131501A1, “THERAPEUTIC USES OF INHIBITORS OF THE RNA-BINDING PROTEIN HuR” (University of Kansas, priority 2020, published 2023).

One may read the IC50 as the concentration that gives 50% inhibition. A lower IC50 goes with greater potency.

“Also recorded” adds a separate entry of the source.

The subject of data set [1] is PANC-1-Luc orthotopic pancreatic xenografts. Description: Orthotopic pancreatic tumor model (PANC-1-Luc). Format: in vivo, nude mice. Here is the method:
All animal procedures were approved by the Institutional Animal Care and Use Committee at the University of Kansas Medical Center under the protocol #2015-2247. Dose of KH-3 was pre-determined by a pilot experiment to be 100 mg/kg body weight, intraperitoneal injection (IP), three times weekly. All treatment in this pancreatic cancer section of the present disclosure concerning KH-3 used this dose regimen.
An orthotopic pancreatic tumor model was used to determine treatment effects of KH-3. Luciferase-expressing PANC-1 cells (PANC-1-Luc, multi-clones) were established by the Preclinical Proof of Concept Core Laboratory (University of Kansas Medical Center, Kansas City, Kans.). A small subcostal laparotomy was performed in female Ncr nu/nu mice to expose the pancreas, and 2×10^5 PANC-1-Luc cells in 50 μL PBS were injected into the tail of pancreas. […]
The in vivo tumor inhibitory effects of KH-3 were tested in a highly metastatic orthotopic model of pancreatic cancer. […] Tumor progression is monitored by weekly imaging using an IVIS Spectrum imaging system (Caliper Life Sciences). […] After 2 weeks, tumor development in the pancreas of the recipient mice was detected by imaging. […] The dose regimen of KH-3 was determined by a pilot dose-finding experiment to be 100 mg/kg, intraperitoneal injection (IP), three times (3×) weekly, which was the highest dose without showing toxicity. […]

Data set [2] concerns hTERT-HPNE (non-cancerous human pancreatic ductal epithelial cell line). Description: MTT cell viability, non-cancerous cells. Format: cell-based. Conditions: 48 hours. Here is the method: (§1) Pancreatic cancer cell lines were obtained from the American Type Culture Collection (Manassas, Va.). hTERT-HPNE cells (immortalized human pancreatic ductal epithelial cells) were donated by Dr. Anant at the University of Kansas Medical Center. MTT assay was used for cell viability detection, with starting cell number in 96-well plate of 3000/well (for 72 h treatment) or 5000/well (for 48 h treatment).
(§2) Pancreatic cancer cell lines with different endogenous HuR expression levels were treated with serial concentrations of KH-3 for 48 hours. KH-3 induced cytotoxicity in pancreatic cancer cells, with the sensitivity correlated to endogenous HuR protein levels (FIG. 30). MIA PaCa2 cells have the highest HuR protein abundance among the tested cell lines and were the most sensitive to HuR treatment (IC50=5 μM). […] BxPC-3 cells, another human pancreatic cancer cell line, have HuR expression level in the middle, and the IC50 of KH-3 was in the middle (10 μM). A non-cancerous human pancreatic ductal epithelial cell line (hTERT-HPNE) was tested under the same conditions. hTERT-HPEN cells have the lowest abundance of HuR protein compared to the cancer cells, and the cytotoxicity of KH-3 to these cells were minimal (IC50>>40 μM). There is an inverse correlation in the tested cell lines between the HuR expression levels and the sensitivity to KH-3 treatment (FIG. 30) (R=−0.71 by Pearson Tests).

In data set [3] the test system is MIA PaCa2 cells. Description: MTT cell viability. It counts as cell-based. Conditions: Homo sapiens, MIA PaCa-2; MIA PaCa2, 48 hours. Here is the method: as §1, §2
For data set [4], the system named is PANC-1 cells. As to the kind of experiment: MTT cell viability. It counts as cell-based. The conditions noted are these: Homo sapiens; PANC-1, 48 hours. Here is the method: as §1, §2
Data set [5] has as its system BxPC-3 cells. Description: MTT cell viability. It counts as cell-based. The conditions noted are these: Homo sapiens; BxPC-3, 48 hours. Here is the method:
as §1, §2

For data set [6], the system named is 2LMP subclone of MDA-MB-231, lung metastasis. As to the kind of experiment: Experimental metastasis model (2LMP, lung metastasis). Format: in vivo, mice. Here is the method: For the experimental metastasis model, Dr. Marc Lippman kindly gifted a 2LMP subclone that was generated from MDA-MB-231 and that formed lung metastasis in mice. 0.5×10^6 2LMP cells stably expressing luciferase in 0.3 mL DMEM were intravenously injected into tail veins of mice. Immediately following injection, mice were imaged by bioluminescence to assure wide distribution and quality of the initial injection. The mice were then randomized into two groups and treated with 50 mg/kg KH-3 or vehicle control via intraperitoneal injection five times per week for five weeks. Bioluminescence imaging was taken weekly to monitor the metastasis burden at lung. […] Imaging was then taken twice a week after first detectable signaling at lung. All animal experiments were carried out according to the protocol approved by the Institutional Animal Use and Care Committee at the University of Kansas.

[7] abbreviates: 50 mg/kg i.p. five times per week for five weeks.

Regarding `CC(C)(C)c1ccc(S(=O)(=O)Nc2ccc3sc(/C=C/C(=O)NO)cc3c2)cc1` [KH-3], the “mice that developed metastasis (liver)” value in data set [1] (100 mg/kg IP 3× weekly, 5 weeks, 1/10) is reported as 10%. Moreover, the “highest dose without showing toxicity” value in data set [1] (pilot dose-finding experiment, IP, three times weekly) came out at 100 mg/kg. The IC50 is over 40 µM in data set [2], 5 µM in data set [3], 25 µM in data set [4] and 10 µM in data set [5]. In data set [6] (setting [7]), this compound displayed a median survival time of 81 days. Besides, in data set [6] (setting [7]), the “median time to initiation of pulmonary metastases” value was found to be 71 days. In addition, the side effects result in data set [6] (setting [7]) is listed as “minor diarrhea in some mice; also recorded: Some mice had swollen abdomens starting the fourth week of treatment”. In data set [6] (50 mg/kg i.p. five times per week for five weeks, 7/9), the “metastasis rate (mice with pulmonary metastases at the end of experiment)” value is 77.7%. For the same compound, the weight gain result in data set [6] (first 43 days of the experiment) is “gained weight similar to those in control group”.
